{"source": "patent US20260069541A1", "about": "“COMPOSITIONS AND METHODS FOR THE DELIVERY OF ACTIVE AGENTS INCLUDING NUCLEIC ACIDS” (Ohio State Innovation Foundation, priority 2022, published 2026)", "key": {"[1]": {"system": "miR-21", "test": "In vitro gene regulation, RT-qPCR of miR-21 downstream genes", "type": "cell-based", "conditions": "KB and A549 cells; free solution, QTsome Original or QTPlus", "method": "In Vitro Gene Regulation. KB, A549, THP-1, MC38, and RAW264.7 cells were seeded at 3×10^5 cells/well in 6-well plates 24 hours prior to treatments. Cells were treated with scramble oligonucleotide or AM21 in free solution, lipofectamine, QTsome Original, and QTPlus. Total RNA was extracted using TRI reagent (Zymo Research) per manufacturer protocol. cDNA was prepared by high-capacity cDNA reverse transcription kit (Invitrogen, Waltham, MA, USA), and real-time qPCR (RT-qPCR) was done using SsoAdvanced™ Universal SYBR® Green Supermix (Bio-Rad Laboratories, Hercules, CA) on a QuantStudio 7 Flex Real-time PCR System. All the RT-qPCR primers were purchased from Sigma-Aldrich. Beta-actin (Actb) was selected as the housekeeping gene control. The relative amount of RNA level was calculated and compared according to the 2-ΔΔCt method."}, "[2]": {"system": "A549 cells", "test": "Colony formation assay", "type": "cell-based", "conditions": "up to 1 week", "method": "Colony Formation Assay. A549 cells were seeded at 100 cells/well in 24-well plates 24 hours prior to treatments. Cells were treated with 16-mer and 20-mer AM21 in free solution and QTPlus at concentrations of 1 uM and 10 uM. Cells were allowed to form colony for up to 1-week followed with fixation by methanol and colony detection by crystal violet."}, "[3]": {"system": "FLuc mRNA expression in HEK293, A549, and KB", "test": "In vitro bioluminescent assay, FLuc mRNA delivery (Example 1)", "type": "cell-based", "conditions": "comparison of ionizable lipids (FIG. 1D) and helper lipids (FIG. 1E)", "method": "In Vitro Bioluminescent Assay. HEK293, A549, and KB were seeded at 3000 cells/well in 96-well plates 24 hours prior to treatments. Cells were treated with 0.1 ug of FLuc mRNA in QTsome Original or QTPlus. Cells were allowed to uptake QTsome Original or QTPlus encapsulating mRNA overnight. The mRNA expression was determined by Bright-Glo™ Luciferase Assay System (Promega, Madison, WI)."}, "[4]": {"system": "HEK293T cells", "test": "Bright-Glo luciferase assay, FFLuc mRNA delivery by QTsome+ (Example 2)", "type": "cell-based", "conditions": "10,000 HEK293T cells, 100 ng FFLuc mRNA, overnight", "method": "To examine the delivery efficiency of QTsome+ lipid nanoparticles, FFLuc mRNA was selected as the reporter gene of interest to be encapsulated into different QTsome+ formulations. Bioluminescence intensity was measured by Bright-Glo luciferase kit used as the quantification of expressed firefly luciferase after mRNA transfection. We treated 10,000 HEK293T cells overnight with 100 ng FFLuc mRNA utilizing different formulations with lipofectamine 3000 as the positive control. […] Therefore, the follow-on samples were formulated at room temperature instead of 65° C. or 37° C."}, "[5]": {"system": "FFLuc mRNA expression", "test": "In vivo mRNA expression after IM injection (IVIS bioluminescence)", "parameters": "species or system ICR CD-1 Swiss mice", "conditions": "1.5 μg per leg, two rounds combined, helper lipid in QTsome+", "source_text": "ICR CD-1 Swiss mice were purchased from Charles River Laboratory Animals were housed in a temperature-controlled room under a 12 hr light/12 hr dark cycle and fed normal chow diet. All animal studies were reviewed and approved by the Ohio State University Institutional Laboratory Animal Care and Use Committee. Both male and female mice were used for experiments. In vivo mRNA expression was quantified by measuring firefly luciferase bioluminescence. Mice treated with IM injection of FFLuc mRNA lipid QTsome+ nanoparticles at 1.5 μg per leg were injected with luciferin intraperitonially 5 minutes prior to bioluminescence measurements. Bioluminescence images were taken by a in vivo imaging system (IVIS) under optimal exposure settings."}, "[6]": {"test": "TNS fluorescence assay, apparent pKa", "type": "physicochemical", "conditions": "helper lipid in QTsome+, same % of DOTAP", "method": "To evaluate the apparent pKa of the lipid QTsome+ nanoparticles including different combinations of lipids, 2-(p-toluidino) naphthalene-6-sulfonic acid (TNS) fluorescence assay was designed. TNS binds to positively charged lipids through electrostatic interactions and emits strong fluorescence upon excitation. A series of universal buffers (a combination of 10 mM NaCitrate, 10 mM NaPhasphate, 10 mM NaBorate, and 150 mM NaCl) with pH ranging from 3 to 12 was prepared. QTsome+ were diluted in these buffers at the final ionizable lipid (including SM-102, A066, DODMA and DOTAP) concentration of 75 μM. TNS was then added to the final concentration at 6.0 μM. pH was measured after thorough mixing of TNS and QTsome+ using a pH meter. TNS Fluorescence was obtained by transferring 200 μL of samples into a black-opaque plate in triplicate, and reading using a SpectraMax M5 plate reader with the excitation (λex) at 325 nm and the emission (Nem) at 435 nm. It was assumed that in the presence of amino lipids, TNS fluorescence reaches a maximum when 100% of the amino lipids are ionized, while TNS has little fluorescence when the amino lipids are in the un-ionized state. […]\nWhere FL is TNS fluorescence value, pKa is apparent pKa of the amino lipids, b is the measure of the cooperativeness of the protonation process of […]."}, "[7]": {"system": "A549 cells", "test": "MTS assay, cell viability and synergy with erlotinib (CompuSyn)", "type": "cell-based", "conditions": "fixed-ratio combination of QTPlus-AM21 and erlotinib", "method": "MTS Assay. A549 cells were seeded at 3000 cells/well in 96-well plates 25 hours before treatments. […] After 72-hour treatment, cell viability was examined by CellTiter 96® AQueous One Solution (Promega, Madison, WI) per manufacturer protocol."}, "[8]": {"system": "A549 xenograft mouse model", "test": "In vivo antitumor efficacy of QTPlus-AM21 and erlotinib, A549 xenograft", "parameters": "species or system nude mice", "conditions": "A549 xenograft mice, individually or in combination", "method": "Treatments were initiated once tumors reached 50-100 mm^3. […] All mice were dosed every 3 days for 5 doses. Tumor growth and body weight were monitored, and the tumor volumes were calculated according to the formula: All animal studies were reviewed and approved by The Ohio State University Institutional Laboratory Animal Care and Use Committee (IACUC). All mice were euthanized one day after the last dose to peak the immune activation and protein expression in TME."}, "[9]": {"system": "MC38 murine colorectal syngeneic model", "test": "In vivo antitumor efficacy, MC38 syngeneic model", "parameters": "species or system C57BL/6 mice", "conditions": "MC38 syngeneic mice, individually or in combination", "method": "To evaluate the combination therapy of QTPlus-AM21 and anti-PDL I therapy, MC38 murine colorectal syngeneic model was generated by subcutaneously inoculating C57BL/6 mice (obtained from Charles River Laboratories) with 1×10^6 cells per mouse on the right flack. Treatments were initiated once tumors reached 50-100 mm^3. Mice (n=5) were intraperitoneally treated with saline, 3 mg/kg QTPlus-encapsulating scramble oligonucleotide, 3 mg/kg QTPlus-AM21, 10 mg/kg atezolizumab, and QTPlus-AM21/atezolizumab combination (3 mg/kg QTPlus-AM21 and 10 mg/kg atezolizumab).\nAll mice were dosed every 3 days for 5 doses. Tumor growth and body weight were monitored, and the tumor volumes were calculated according to the formula: […]\nAll animal studies were reviewed and approved by The Ohio State University Institutional Laboratory Animal Care and Use Committee (IACUC). All mice were euthanized one day after the last dose to peak the immune activation and protein expression in TME. Terminal Tumor growth inhibition (% TGI) was determined by the formula: […]\nFlow Cytometry. […] Stained cells were analyzed using an LSR II flow cytometer in Flow Cytometry Shared Resources (FCSR) at The Ohio State University Comprehensive Cancer Center."}}}
{"compound": "5′-A*+T*+C*A*G*+T*+C*+T*G*A*+T*A*A*G*+C*+T-3′ (ATCAGTCTGATAAGCT; chemistry not given here) [AM21]", "values": [{"measurement": "miR-21 downstream gene regulation", "setting": "[1]", "value": "Akt1 downregulation, Ddah1 upregulation, and Pdl1 upregulation"}, {"measurement": "Inhibition of colony formation / A549 cell growth", "setting": "[2]", "value": "superior in inhibiting A549 cell growth in vitro"}]}
{"compound": "CCCCC/C=C\\C/C=C\\CCCCCCCCOCC(CN1CCCC1)OCCCCCCCC/C=C\\C/C=C\\CCCCC", "note": "(centres unmarked) [A-066, 1-(2,3-bis(((9Z,12Z)-octadeca-9,12-dien-1-yl)oxy)propyl)pyrrolidine]", "values": [{"measurement": "mRNA delivery efficiency of QTPlus with different components", "setting": "[3]", "value": "the most suitable for mRNA delivery in QTsome platform"}]}
{"compound": "CCCCCCCC/C=C\\CCCCCCCC(=O)OC[C@H](COP(=O)(O)OCCN)OC(=O)CCCCCCC/C=C\\CCCCCCCC", "note": "[DOPE, 1,2-dioleoyl-sn-glycero-3-phosphoethanolamine]", "values": [{"measurement": "mRNA delivery efficiency of QTPlus with different components", "setting": "[3]", "value": "the most suitable as helper lipids"}, {"measurement": "Bioluminescence intensity (mRNA delivery efficiency)", "setting": "[4]", "value": "outperformed DOPC and DSPC"}, {"measurement": "In vivo delivery efficiency (FLuc expression)", "setting": "[5]", "value": "rather outperformed PC-based helper lipids"}]}
{"compound": "CCCCCCCCCCCCCCCCCC(=O)OC[C@H](COP(=O)([O-])OCC[N+](C)(C)C)OC(=O)CCCCCCCCCCCCCCCCC", "note": "[DSPC, distearoylphosphatidylcholine]", "values": [{"measurement": "Apparent pKa", "setting": "[6]", "value": "lowest pKa among all"}]}
{"compound": "CCCCC/C=C\\C/C=C\\CCCCCCCCC(CCCCCCCC/C=C\\C/C=C\\CCCCC)OC(=O)CCCN(C)C", "note": "[MC3, dilinoleylmethyl-4-dimethylaminobutyrate, reference compound]", "values": [{"measurement": "Bioluminescence intensity (mRNA delivery efficiency)", "setting": "[4]", "value": "slightly increased the delivery efficiency"}]}
{"compound": "C#Cc1cccc(Nc2ncnc3cc(OCCOC)c(OCCOC)cc23)c1", "note": "[erlotinib, Erlotinib]", "values": [{"measurement": "Dose reduction index (DRI)", "setting": "[7]", "value": 2.26}, {"measurement": "Body weight", "setting": "[8]", "value": "No significant differences in body weight"}]}
{"compound": "atezolizumab: an anti-PDL1 therapy, monoclonal antibody", "values": [{"measurement": "Body weight", "setting": "[9]", "value": "No significant differences in body weight"}]}
